Reference: patent US12559464B2, “Quinazolinone dione compounds and uses thereof” (Edgewise Therapeutics, Inc., priority 2023, dated 2026)

Tests used:
[1] = system: myosin ATPase, Rabbit Psoas myofibrils; assay: Myofibril ATPase assay, rabbit psoas (skeletal) myofibrils; assay type: biochemical; settings: concentration required to reduce myosin ATP-ase activity by 25%; Rabbit Psoas Prep pCa 25 GEOM_MEAN
[2] = system: myosin ATPase, Porcine Atria myofibrils; assay: Myofibril ATPase assay, porcine atria myofibrils; assay type: biochemical; settings: concentration required to reduce myosin ATP-ase activity by 25%; Porcine Atria Prep pCa 25 GEOM_MEAN
[3] = molecular target: T1, myosin ATPase, Porcine Ventricle myofibrils (Sus scrofa, UniProt P79293); assay: Myofibril ATPase assay, porcine ventricle myofibrils; assay type: biochemical, porcine (Yucatan minipigs); settings: concentration required to reduce myosin ATP-ase activity by 25%; Porcine Ventricle Prep pCa 25 GEOM_MEAN
T1 construct: Myofibrils from porcine cardiac muscle was isolated from the left ventricle of Yucatan minipigs; tissue Exemplar Genetics; host or cells: left ventricle of Yucatan minipigs, myofibrils
Procedure, shortened: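 Myofibrils from Yucatan minipig left ventricle; ADP production coupled via PK-LDH to NADH loss, read kinetically at 340 nm every 1.5–2 min for 75 min in PIPES/MgCl2 pH 7.0 buffer. Slopes normalized to vehicle and fit to 4-parameter logistic; values are concentrations giving 75% (inhibition) or 125% (activation) of vehicle activity.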

T1 sequence (P79293 whole entry): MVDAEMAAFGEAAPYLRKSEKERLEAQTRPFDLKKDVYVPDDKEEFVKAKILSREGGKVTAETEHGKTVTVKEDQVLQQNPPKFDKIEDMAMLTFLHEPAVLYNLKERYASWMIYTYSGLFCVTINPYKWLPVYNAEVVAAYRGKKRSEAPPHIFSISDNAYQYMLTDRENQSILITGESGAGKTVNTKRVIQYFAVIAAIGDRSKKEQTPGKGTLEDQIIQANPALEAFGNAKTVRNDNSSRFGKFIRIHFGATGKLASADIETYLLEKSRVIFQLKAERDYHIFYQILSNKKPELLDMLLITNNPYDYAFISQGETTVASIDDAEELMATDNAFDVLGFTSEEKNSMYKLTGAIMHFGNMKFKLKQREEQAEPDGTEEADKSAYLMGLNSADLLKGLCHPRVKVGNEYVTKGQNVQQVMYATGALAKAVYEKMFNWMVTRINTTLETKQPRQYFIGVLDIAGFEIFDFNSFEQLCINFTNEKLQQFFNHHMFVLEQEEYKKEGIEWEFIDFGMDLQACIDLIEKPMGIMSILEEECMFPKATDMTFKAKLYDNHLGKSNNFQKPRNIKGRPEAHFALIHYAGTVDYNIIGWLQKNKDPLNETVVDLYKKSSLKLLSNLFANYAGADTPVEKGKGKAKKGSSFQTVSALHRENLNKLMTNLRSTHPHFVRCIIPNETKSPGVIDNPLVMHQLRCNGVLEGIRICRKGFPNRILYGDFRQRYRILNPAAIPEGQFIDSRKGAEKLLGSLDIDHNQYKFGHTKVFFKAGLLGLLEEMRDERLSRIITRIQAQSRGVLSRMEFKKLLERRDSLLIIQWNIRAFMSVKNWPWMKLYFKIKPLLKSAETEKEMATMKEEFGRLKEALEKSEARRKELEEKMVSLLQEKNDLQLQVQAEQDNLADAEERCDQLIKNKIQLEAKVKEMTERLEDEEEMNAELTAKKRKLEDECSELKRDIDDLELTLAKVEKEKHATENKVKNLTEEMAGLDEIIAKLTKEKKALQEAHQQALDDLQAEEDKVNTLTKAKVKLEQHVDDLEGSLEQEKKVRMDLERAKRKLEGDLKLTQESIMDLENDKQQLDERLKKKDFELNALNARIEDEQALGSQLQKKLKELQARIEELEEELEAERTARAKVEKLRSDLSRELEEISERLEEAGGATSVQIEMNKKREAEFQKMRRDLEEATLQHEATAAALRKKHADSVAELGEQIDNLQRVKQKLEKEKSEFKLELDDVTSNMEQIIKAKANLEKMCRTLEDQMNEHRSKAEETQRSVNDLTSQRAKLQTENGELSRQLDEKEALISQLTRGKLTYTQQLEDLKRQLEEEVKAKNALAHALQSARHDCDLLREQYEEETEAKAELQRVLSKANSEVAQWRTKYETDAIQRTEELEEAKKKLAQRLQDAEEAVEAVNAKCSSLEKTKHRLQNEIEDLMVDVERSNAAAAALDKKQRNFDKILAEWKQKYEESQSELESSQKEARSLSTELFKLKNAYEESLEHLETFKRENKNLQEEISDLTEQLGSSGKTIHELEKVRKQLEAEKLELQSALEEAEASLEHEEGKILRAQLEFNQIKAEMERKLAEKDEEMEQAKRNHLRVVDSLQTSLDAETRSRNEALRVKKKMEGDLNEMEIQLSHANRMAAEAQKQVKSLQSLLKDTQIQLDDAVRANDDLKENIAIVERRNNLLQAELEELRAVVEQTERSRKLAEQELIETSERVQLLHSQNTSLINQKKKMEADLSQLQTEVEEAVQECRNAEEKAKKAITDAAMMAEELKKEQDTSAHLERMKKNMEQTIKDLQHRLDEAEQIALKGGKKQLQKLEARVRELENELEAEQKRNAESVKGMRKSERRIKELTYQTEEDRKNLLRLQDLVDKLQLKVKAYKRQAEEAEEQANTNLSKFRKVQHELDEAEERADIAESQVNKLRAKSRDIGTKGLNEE

C[C@H](NC(=O)[C@@H](C)n1c(=O)[nH]c2ccc(F)c(F)c2c1=O)c1ccc(F)cc1F [Compound 37, (R)-2-(5,6-difluoro-2,4-dioxo-1,4-dihydroquinazolin-3(2H)-yl)-N-((S)-1-(2,4-difluorophenyl)ethyl)propanamide]
Rabbit Psoas EC25 (Y75 value) [1]: 0.412 µM | Porcine Atria EC25 (Y75 value) [2]: 0.658 µM | Porcine Ventricle EC25 (Y75 value) [3]: 17.77 µM

C[C@H](NC(=O)[C@H](C)n1c(=O)[nH]c2ccc(F)c(F)c2c1=O)c1ccc(F)cc1F [Compound 38, (S)-2-(5,6-difluoro-2,4-dioxo-1,4-dihydroquinazolin-3(2H)-yl)-N-((S)-1-(2,4-difluorophenyl)ethyl)propanamide]
Rabbit Psoas EC25 (Y75 value) [1]: 0.422 µM | Porcine Atria EC25 (Y75 value) [2]: 0.185 µM | Porcine Ventricle EC25 (Y75 value) [3]: 3.995 µM

C[C@H](NC(=O)Cn1c(=O)[nH]c2ccc(F)c(F)c2c1=O)c1ccc(F)cc1F [Compound 39, (S)-2-(5,6-difluoro-2,4-dioxo-1,4-dihydroquinazolin-3(2H)-yl)-N-(1-(2,4-difluorophenyl)ethyl)acetamide]
Rabbit Psoas EC25 (Y75 value) [1]: 0.055 µM | Porcine Atria EC25 (Y75 value) [2]: 0.0536 µM | Porcine Ventricle EC25 (Y75 value) [3]: 0.3333 µM

C[C@H](NC(=O)[C@H](C)n1c(=O)[nH]c2ccc(F)cc2c1=O)c1ccc(F)cc1F [Compound 40, (S)-N-((S)-1-(2,4-difluorophenyl)ethyl)-2-(6-fluoro-2,4-dioxo-1,4-dihydroquinazolin-3(2H)-yl)propanamide]
Rabbit Psoas EC25 (Y75 value) [1]: 0.476 µM | Porcine Atria EC25 (Y75 value) [2]: 0.1074 µM | Porcine Ventricle EC25 (Y75 value) [3]: 6.567 µM

C[C@H](NC(=O)[C@@H](C)n1c(=O)[nH]c2ccc(F)cc2c1=O)c1ccc(F)cc1F [Compound 41, (R)-N-((S)-1-(2,4-difluorophenyl)ethyl)-2-(6-fluoro-2,4-dioxo-1,4-dihydroquinazolin-3(2H)-yl)propanamide]
Rabbit Psoas EC25 (Y75 value) [1]: 0.828 µM | Porcine Atria EC25 (Y75 value) [2]: 1.375 µM | Porcine Ventricle EC25 (Y75 value) [3]: 28.36 µM

C[C@H](NC(=O)C(C)(C)n1c(=O)[nH]c2ccccc2c1=O)c1ccc(F)cc1F [Compound 42, (S)-N-(1-(2,4-difluorophenyl)ethyl)-2-(2,4-dioxo-1,4-dihydroquinazolin-3(2H)-yl)-2-methylpropanamide]
Rabbit Psoas EC25 (Y75 value) [1]: 100 µM | Porcine Atria EC25 (Y75 value) [2]: 100 µM | Porcine Ventricle EC25 (Y75 value) [3]: 100 µM

CN1CC(NC(=O)Cn2c(=O)[nH]c3ccccc3c2=O)c2c(F)cc(F)cc2C1=O (stereo not drawn) [Compound 43, N-(5,7-difluoro-2-methyl-1-oxo-1,2,3,4-tetrahydroisoquinolin-4-yl)-2-(2,4-dioxo-1,4-dihydroquinazolin-3(2H)-yl)acetamide]
Rabbit Psoas EC25 (Y75 value) [1]: 58.79 µM | Porcine Atria EC25 (Y75 value) [2]: 100 µM | Porcine Ventricle EC25 (Y75 value) [3]: 100 µM

O=C(Cn1c(=O)[nH]c2ccccc2c1=O)NC1CNC(=O)c2cc(F)cc(F)c21 (stereo not drawn) [Compound 46, N-(5,7-difluoro-1-oxo-1,2,3,4-tetrahydroisoquinolin-4-yl)-2-(2,4-dioxo-1,4-dihydroquinazolin-3(2H)-yl)acetamide]
Rabbit Psoas EC25 (Y75 value) [1]: 100 µM | Porcine Atria EC25 (Y75 value) [2]: 100 µM | Porcine Ventricle EC25 (Y75 value) [3]: 100 µM

CC(NC(=O)Cn1c(=O)[nH]c2ccccc2c1=O)c1ncc(F)cc1F (stereo not drawn) [Compound 47, N-(1-(3,5-difluoropyridin-2-yl)ethyl)-2-(2,4-dioxo-1,4-dihydroquinazolin-3(2H)-yl)acetamide]
Rabbit Psoas EC25 (Y75 value) [1]: 1.97 µM | Porcine Atria EC25 (Y75 value) [2]: 1.442 µM | Porcine Ventricle EC25 (Y75 value) [3]: 100 µM

Cc1ccc2[nH]c(=O)n(CC(=O)N[C@@H](C)c3ccc(F)cc3F)c(=O)c2c1 [Compound 51, (S)-N-(1-(2,4-difluorophenyl)ethyl)-2-(6-methyl-2,4-dioxo-1,4-dihydroquinazolin-3(2H)-yl)acetamide]
Rabbit Psoas EC25 (Y75 value) [1]: 0.984 µM | Porcine Atria EC25 (Y75 value) [2]: 0.2427 µM | Porcine Ventricle EC25 (Y75 value) [3]: 13.83 µM

C[C@H](NC(=O)Cn1c(=O)[nH]c2ccnc(O)c2c1=O)c1ccc(F)cc1F [Compound 59, (S)-N-(1-(2,4-difluorophenyl)ethyl)-2-(5-hydroxy-2,4-dioxo-1,4-dihydropyrido[4,3-d]pyrimidin-3(2H)-yl)acetamide]
Rabbit Psoas EC25 (Y75 value) [1]: 100 µM | Porcine Atria EC25 (Y75 value) [2]: 100 µM | Porcine Ventricle EC25 (Y75 value) [3]: 100 µM

COc1nccc2[nH]c(=O)n(CC(=O)N[C@@H](C)c3ccc(F)cc3F)c(=O)c12 [Compound 65, (S)-N-(1-(2,4-difluorophenyl)ethyl)-2-(5-methoxy-2,4-dioxo-1,4-dihydropyrido[4,3-d]pyrimidin-3(2H)-yl)acetamide]
Rabbit Psoas EC25 (Y75 value) [1]: 8.499 µM | Porcine Atria EC25 (Y75 value) [2]: 3.241 µM | Porcine Ventricle EC25 (Y75 value) [3]: 100 µM

COc1cccc2[nH]c(=O)n(CC(=O)N[C@@H](C)c3ccc(F)cc3F)c(=O)c12 [Compound 69, (S)-N-(1-(2,4-difluorophenyl)ethyl)-2-(5-methoxy-2,4-dioxo-1,4-dihydroquinazolin-3(2H)-yl)acetamide]
Rabbit Psoas EC25 (Y75 value) [1]: 1.147 µM | Porcine Atria EC25 (Y75 value) [2]: 21.1 µM | Porcine Ventricle EC25 (Y75 value) [3]: 100 µM

CCC(NC(=O)Cn1c(=O)[nH]c2ccccc2c1=O)c1ccc(F)cc1F (stereo not drawn) [Compound 71, N-(1-(2,4-difluorophenyl)propyl)-2-(2,4-dioxo-1,4-dihydroquinazolin-3(2H)-yl)acetamide]
Rabbit Psoas EC25 (Y75 value) [1]: 3.86 µM | Porcine Atria EC25 (Y75 value) [2]: 12.67 µM | Porcine Ventricle EC25 (Y75 value) [3]: 53.2 µM

C[C@H](NC(=O)Cn1c(=O)[nH]c2cccc(O)c2c1=O)c1ccc(F)cc1F [Compound 72, (S)-N-(1-(2,4-difluorophenyl)ethyl)-2-(5-hydroxy-2,4-dioxo-1,4-dihydroquinazolin-3(2H)-yl)acetamide]
Rabbit Psoas EC25 (Y75 value) [1]: 0.019 µM | Porcine Atria EC25 (Y75 value) [2]: 0.1151 µM | Porcine Ventricle EC25 (Y75 value) [3]: 0.2524 µM

Cc1cccc2[nH]c(=O)n(CC(=O)N[C@@H](C)c3ccc(F)cc3F)c(=O)c12 [Compound 73, (S)-N-(1-(2,4-difluorophenyl)ethyl)-2-(5-methyl-2,4-dioxo-1,4-dihydroquinazolin-3(2H)-yl)acetamide]
Rabbit Psoas EC25 (Y75 value) [1]: 0.0495 µM | Porcine Atria EC25 (Y75 value) [2]: 0.1149 µM | Porcine Ventricle EC25 (Y75 value) [3]: 0.707 µM

O=C(Cn1c(=O)[nH]c2ccccc2c1=O)NC(CO)c1ccc(F)cc1F (stereo not drawn) [Compound 87, N-(1-(2,4-difluorophenyl)-2-hydroxyethyl)-2-(2,4-dioxo-1,4-dihydroquinazolin-3(2H)-yl)acetamide]
Rabbit Psoas EC25 (Y75 value) [1]: 0.817 µM | Porcine Atria EC25 (Y75 value) [2]: 5.405 µM | Porcine Ventricle EC25 (Y75 value) [3]: 100 µM

C[C@H](NC(=O)Cn1c(=O)[nH]c2ncncc2c1=O)c1ccc(F)cc1F [Compound 95, (S)-N-(1-(2,4-difluorophenyl)ethyl)-2-(2,4-dioxo-1,4-dihydropyrimido[4,5-d]pyrimidin-3(2H)-yl)acetamide]
Rabbit Psoas EC25 (Y75 value) [1]: 100 µM | Porcine Atria EC25 (Y75 value) [2]: 100 µM | Porcine Ventricle EC25 (Y75 value) [3]: 100 µM

C[C@H](NC(=O)Cn1c(=O)[nH]c2cncnc2c1=O)c1ccc(F)cc1F [Compound 96, (S)-N-(1-(2,4-difluorophenyl)ethyl)-2-(2,4-dioxo-1,4-dihydropyrimido[5,4-d]pyrimidin-3(2H)-yl)acetamide]
Rabbit Psoas EC25 (Y75 value) [1]: 100 µM | Porcine Atria EC25 (Y75 value) [2]: 100 µM | Porcine Ventricle EC25 (Y75 value) [3]: 100 µM

CC(NC(=O)Cn1c(=O)[nH]c2ccccc2c1=O)c1ccc(F)cn1 (stereo not drawn) [Compound 106, 2-(2,4-dioxo-1,4-dihydroquinazolin-3(2H)-yl)-N-(1-(5-fluoropyridin-2-yl)ethyl)acetamide]
Rabbit Psoas EC25 (Y75 value) [1]: 72.241 µM | Porcine Atria EC25 (Y75 value) [2]: 100 µM | Porcine Ventricle EC25 (Y75 value) [3]: 100 µM

COc1ccc2c(=O)n(CC(=O)N[C@@H](C)c3ccc(F)cc3F)c(=O)[nH]c2c1 [Compound 142, (S)-N-(1-(2,4-difluorophenyl)ethyl)-2-(7-methoxy-2,4-dioxo-1,4-dihydroquinazolin-3(2H)-yl)acetamide]
Rabbit Psoas EC25 (Y75 value) [1]: 100 µM | Porcine Atria EC25 (Y75 value) [2]: 100 µM | Porcine Ventricle EC25 (Y75 value) [3]: 100 µM

C[C@H](NC(=O)Cn1c(=O)[nH]c2cc(F)ccc2c1=O)c1ccc(F)cc1F [Compound 143, (S)-N-(1-(2,4-difluorophenyl)ethyl)-2-(7-fluoro-2,4-dioxo-1,4-dihydroquinazolin-3(2H)-yl)acetamide]
Rabbit Psoas EC25 (Y75 value) [1]: 9.2 µM | Porcine Atria EC25 (Y75 value) [2]: 2.081 µM | Porcine Ventricle EC25 (Y75 value) [3]: 100 µM
